# Patent US20160089348A1, “USE OF AN S1P RECEPTOR AGONIST” (priority 2009, published 2016)
# How the values were obtained:
# [1] = test system: patients with relapsing-remitting MS (RRMS); assay: Brain volume change (brain atrophy) by MRI using SIENA software in clinical study of daily oral fingolimod vs placebo; assay type: in vivo, human; conditions: for Brain volume, Percent change from Month 12 to Month 24, Mean (SD) / Brain volume, Percent change from Month 12 to Month 24, Median / Brain volume, Percent change from baseline to Month 24, Mean (SD) / Brain volume, Percent change from baseline to Month 24, Median / Brain volume, Percent change from baseline to Month 12, Mean (SD) / Brain volume, Percent change from baseline to Month 12, Median / Brain volume, Percent change from baseline to Month 6, Mean (SD) / Brain volume, Percent change from baseline to Month 6, Median: RRMS patients
# Description: Annualized relapse rate (ARR) over 24 months (primary endpoint) and time to disability progression (key secondary endpoint) is assessed in patients with relapsing-remitting MS (RRMS). Patients aged 18-55 years with an Expanded Disability Status Scale score 0-5.5, relapse in the previous year (or ≧2 in the previous 2 years) are randomized to daily oral fingolimod 1.25 mg or 0.5 mg, or placebo. […]
# [2] = test system: patients with relapsing-remitting MS (RRMS); assay: MRI lesion measures (Gd-enhancing, T2, T1 hypointense lesions) in clinical study of daily oral fingolimod vs placebo; assay type: in vivo, human; conditions: for T1 hypointense lesion volume, months 0-24 - % change, Mean ± SD / T1 hypointense lesion volume, months 0-24 - % change, Median (range) / T2 lesion volume, months 0-24 - % change, Mean ± SD / T2 lesion volume, months 0-24 - % change, Median (range) / Patients free from new or enlarged T2 lesions, months 0-24 - (%) / Patients free from new or enlarged T2 lesions, months 0-24 - no.: RRMS patients
# Description: Annualized relapse rate (ARR) over 24 months (primary endpoint) and time to disability progression (key secondary endpoint) is assessed in patients with relapsing-remitting MS (RRMS). Patients aged 18-55 years with an Expanded Disability Status Scale score 0-5.5, relapse in the previous year (or ≧2 in the previous 2 years) are randomized to daily oral fingolimod 1.25 mg or 0.5 mg, or placebo. […] The brain volume changes for months 0 to 12 is measured using SIENA software.
# [3] = FTY720 0.5 mg daily oral, n 356
# [4] = FTY720 0.5 mg daily oral, n 357
# [5] = FTY720 0.5 mg daily oral, n 383
# [6] = FTY720 0.5 mg daily oral, n 395
# [7] = FTY720 1.25 mg daily oral, n 327
# [8] = FTY720 1.25 mg daily oral, n 334
# [9] = FTY720 1.25 mg daily oral, n 371
# [10] = FTY720 1.25 mg daily oral, n 384
# [11] = fingolimod-treated patients, baseline to month 24
# [12] = fingolimod 0.5 mg daily oral, N = 346 with MRI data
# [13] = fingolimod 0.5 mg daily oral, N = 368 with MRI data
# [14] = fingolimod 0.5 mg daily oral, N = 425
# [15] = fingolimod 1.25 mg daily oral, N = 317 with MRI data
# [16] = fingolimod 1.25 mg daily oral, N = 343 with MRI data
# [17] = fingolimod 1.25 mg daily oral, N = 429
# [18] = both fingolimod groups (1.25 mg, 0.5 mg), at 6, 12 and 24 months
compound,measurement,setting,value
"CCCCCCCCc1ccc(CCC(N)(CO)CO)cc1.Cl [fingolimod, 2-amino-2-[2-(4-octylphenyl)ethyl]propane-1,3-diol]","Brain volume, Percent change from Month 12 to Month 24, Mean (SD)",[1]; [3],−0.370 (0.8073) %
same,"Brain volume, Percent change from Month 12 to Month 24, Median",[1]; [3],−0.340%
same,"Brain volume, Percent change from baseline to Month 24, Mean (SD)",[1]; [4],−0.843 (1.3120) %
same,"Brain volume, Percent change from baseline to Month 24, Median",[1]; [4],−0.670%
same,"Brain volume, Percent change from baseline to Month 12, Mean (SD)",[1]; [5],−0.500 (1.0509) %
same,"Brain volume, Percent change from baseline to Month 12, Median",[1]; [5],−0.380%
same,"Brain volume, Percent change from baseline to Month 6, Mean (SD)",[1]; [6],−0.224 (0.8131) %
same,"Brain volume, Percent change from baseline to Month 6, Median",[1]; [6],−0.140%
same,"Brain volume, Percent change from Month 12 to Month 24, Mean (SD)",[1]; [7],−0.423 (0.8284) %
same,"Brain volume, Percent change from Month 12 to Month 24, Median",[1]; [7],−0.380%
same,"Brain volume, Percent change from baseline to Month 24, Mean (SD)",[1]; [8],−0.885 (1.3857) %
same,"Brain volume, Percent change from baseline to Month 24, Median",[1]; [8],−0.700%
same,"Brain volume, Percent change from baseline to Month 12, Mean (SD)",[1]; [9],−0.438 (1.0792) %
same,"Brain volume, Percent change from baseline to Month 12, Median",[1]; [9],−0.300%
same,"Brain volume, Percent change from baseline to Month 6, Mean (SD)",[1]; [10],−0.209 (0.8649) %
same,"Brain volume, Percent change from baseline to Month 6, Median",[1]; [10],−0.120%
same,Reduction in atrophy rate versus placebo,[1]; [11],30%
same,Reduction in brain volume versus placebo group,[1]; [11],significantly less reduction in brain volume than those in the placebo group
same,"T1 hypointense lesion volume, months 0-24 - % change, Mean ± SD",[2]; [12],8.8 ± 76.27%
same,"T1 hypointense lesion volume, months 0-24 - % change, Median (range)",[2]; [12],0.00 (−100.0-1037.1) %
same,"T2 lesion volume, months 0-24 - % change, Mean ± SD",[2]; [13],10.6 ± 103.46%
same,"T2 lesion volume, months 0-24 - % change, Median (range)",[2]; [13],−1.69 (−100.0-1828.5) %
same,"Patients free from new or enlarged T2 lesions, months 0-24 - (%)",[2]; [14],50.5%
same,"Patients free from new or enlarged T2 lesions, months 0-24 - no.",[2]; [14],187
same,"T1 hypointense lesion volume, months 0-24 - % change, Mean ± SD",[2]; [15],12.2 ± 85.49%
same,"T1 hypointense lesion volume, months 0-24 - % change, Median (range)",[2]; [15],−0.20 (−100.0-888.4) %
same,"T2 lesion volume, months 0-24 - % change, Mean ± SD",[2]; [16],1.6 ± 30.71%
same,"T2 lesion volume, months 0-24 - % change, Median (range)",[2]; [16],−3.10 (−68.2-221.5) %
same,"Patients free from new or enlarged T2 lesions, months 0-24 - (%)",[2]; [17],51.9%
same,"Patients free from new or enlarged T2 lesions, months 0-24 - no.",[2]; [17],175
same,Proportions of patients free from new or enlarged T2 lesions versus placebo,"[2]; both fingolimod doses, over 24 months",greater proportions of patients are free from these lesions
same,Gd-enhancing lesions versus placebo group,[2]; [18],significantly fewer Gd-enhancing lesions than those in the placebo group
same,Patients free from Gd-enhancing lesions versus placebo,[2]; [18],proportionately more patients are free from Gd-enhancing lesions
same,New or enlarged T2 lesions versus placebo,"[2]; fingolimod 0.5 mg or 1.25 mg, over 24 months",Fewer new or enlarged T2 lesions
same,"Volume of T2 lesions, change from baseline to month 24","[2]; fingolimod-treated patients, increases with placebo",decreases
